# Assay results: US5480885A, “Ergoline derivatives of 1-propinylamine, a process for the manufacture thereof and the use thereof for medicaments” (priority 1991, dated 1996)
# “Also recorded” adds a separate entry of the source. Read-outs that look alike come from different tables or passages of the source.
# How the values were obtained:
# pithed rats = assay: vasoconstriction / diastolic pressure in pithed rats (Gillespie); assay type: in vivo, rat; settings: 450 μg/kg i.v.; for peripheral vasoconstriction: in words
# [1] = target: T1, 5-HT1A serotoninergic receptor (Homo sapiens, UniProt P08908); assay: functional test, 5-HT1A serotoninergic receptor; settings: in words
# T1 sequence (P08908 1-422): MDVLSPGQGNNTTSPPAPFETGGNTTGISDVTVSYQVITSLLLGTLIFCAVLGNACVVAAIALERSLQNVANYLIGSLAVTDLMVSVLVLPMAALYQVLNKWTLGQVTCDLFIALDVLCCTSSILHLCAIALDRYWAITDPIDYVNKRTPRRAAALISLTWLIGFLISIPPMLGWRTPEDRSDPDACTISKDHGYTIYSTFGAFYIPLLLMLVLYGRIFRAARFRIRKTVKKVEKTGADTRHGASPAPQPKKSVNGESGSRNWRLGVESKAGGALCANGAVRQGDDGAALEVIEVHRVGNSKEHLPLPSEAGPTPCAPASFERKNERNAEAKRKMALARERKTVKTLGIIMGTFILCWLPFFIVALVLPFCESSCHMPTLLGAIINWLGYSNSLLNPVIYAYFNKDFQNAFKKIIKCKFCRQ
# pupil = assay: dilatation of the pupil in mice (Pulewka); assay type: in vivo; settings: in words
# 5-HT1A receptors = assay: spontaneous tail-flicks in rats; assay type: in vivo, rat; settings: in words
# isolated rat uterus = assay: uterotonic activity (isolated rat uterus); settings: in words
# [2] = tested on: isolated rabbit thoracic aorta; assay: constriction of the isolated rabbit thoracic aorta
# sigma receptor [3] = assay: functional test, sigma receptor; settings: in words
# [4] = tested on: pentobarbital-anesthetized normotensive rats; assay: blood pressure and heart rate in pentobarbital-anesthetized normotensive rats; assay type: in vivo, rat; settings: 450 μg/kg i.v.; for effect on carotid artery pressure / effect on heart rate: in words
# 5-HT2 receptor = 5-HT2 receptor (Homo sapiens, UniProt P28223); assay: biochemical; assay type: binding; settings: for Ki: 5-HT2, [^3 H]Ketanserin, read-out: Ki; for affinity for 5-HT2 receptors: in words
# Chain of 5-HT2 receptor (P28223 whole entry): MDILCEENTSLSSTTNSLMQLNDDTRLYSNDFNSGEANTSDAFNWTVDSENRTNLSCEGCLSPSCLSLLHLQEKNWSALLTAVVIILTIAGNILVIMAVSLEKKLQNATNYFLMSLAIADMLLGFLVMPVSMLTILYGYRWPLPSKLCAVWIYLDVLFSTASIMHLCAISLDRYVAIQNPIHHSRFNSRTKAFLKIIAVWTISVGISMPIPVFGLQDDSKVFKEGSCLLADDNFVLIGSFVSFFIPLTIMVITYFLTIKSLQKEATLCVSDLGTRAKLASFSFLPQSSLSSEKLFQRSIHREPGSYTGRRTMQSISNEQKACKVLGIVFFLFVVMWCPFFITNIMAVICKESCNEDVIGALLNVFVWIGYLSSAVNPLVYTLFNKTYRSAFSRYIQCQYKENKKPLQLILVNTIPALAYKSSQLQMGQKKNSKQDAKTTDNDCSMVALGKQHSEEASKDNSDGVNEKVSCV
# Source text: (§1) Binding affinities of the compounds of Examples 1
# sigma receptor [5] = assay: binding at [^3 H] DTG binding site; settings: in words
# D2 receptor = D2 receptor (Homo sapiens, UniProt P14416); assay: binding, [^3 H]Raclopride; settings: for Ki: D2, [^3 H]Raclopride; for affinity for D2 receptors: in words
# Chain of D2 receptor (P14416 whole entry): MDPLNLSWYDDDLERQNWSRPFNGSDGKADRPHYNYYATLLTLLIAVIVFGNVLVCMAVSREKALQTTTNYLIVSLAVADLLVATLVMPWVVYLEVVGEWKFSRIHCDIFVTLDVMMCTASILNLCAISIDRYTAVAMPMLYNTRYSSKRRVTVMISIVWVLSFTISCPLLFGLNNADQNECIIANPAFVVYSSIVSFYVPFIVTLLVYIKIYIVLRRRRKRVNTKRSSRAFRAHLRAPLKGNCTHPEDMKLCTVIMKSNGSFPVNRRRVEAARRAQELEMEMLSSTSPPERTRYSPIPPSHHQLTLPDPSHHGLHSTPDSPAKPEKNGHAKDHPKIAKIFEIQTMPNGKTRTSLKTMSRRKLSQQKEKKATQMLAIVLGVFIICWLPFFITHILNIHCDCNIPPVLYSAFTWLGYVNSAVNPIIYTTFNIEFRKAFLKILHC
# Source text: as §1
# 5-HT2 receptors = target: T2, 5-HT2 receptors (Mus musculus, UniProt P35363); assay: inhibition of the head twitch response after 5-HTP/carbidopa; assay type: in vivo, mice; settings: ip; for ED50: mice, read-out: ID50, inhibition of head twitch response
# T2 construct: The head twitch model in mice; from tissue; host or cells: living mice (central nervous system)
# T2 sequence (P35363 whole entry): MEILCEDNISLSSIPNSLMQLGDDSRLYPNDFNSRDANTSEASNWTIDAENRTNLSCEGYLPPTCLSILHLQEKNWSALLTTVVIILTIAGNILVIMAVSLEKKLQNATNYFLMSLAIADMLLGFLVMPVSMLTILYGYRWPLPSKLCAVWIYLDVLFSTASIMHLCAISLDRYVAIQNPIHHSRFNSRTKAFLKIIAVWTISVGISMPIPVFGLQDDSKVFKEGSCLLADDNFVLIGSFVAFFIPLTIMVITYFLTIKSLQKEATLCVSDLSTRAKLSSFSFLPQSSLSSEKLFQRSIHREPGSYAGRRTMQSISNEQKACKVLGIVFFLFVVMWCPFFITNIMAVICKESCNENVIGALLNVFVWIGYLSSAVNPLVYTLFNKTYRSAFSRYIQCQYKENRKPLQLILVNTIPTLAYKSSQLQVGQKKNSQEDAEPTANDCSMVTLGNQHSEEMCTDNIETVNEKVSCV
# Experimental: The substance was injected 15 minutes prior to DL-5-HTP. The head twitch was recorded from 30 to 35 minutes after the DL-5-HTP injection (modified method according to Handley and Singh, Br. J. Pharmacol. 86, 297 (1985)).
# The compound was injected 15 minutes prior to L-5-HTP (modified method according to Handley and Singh, Br. J. Pharmacol. 86, 297 (1985)).
# The head twitch model in mice represents an experimental model for determining the hallucinogenic action of a compound (the method was described by Handley and Singh, Br.J.Pharmacol., 86, 297-303, 1985). It is believed that the response is conveyed via the 5-HT2 receptors.
# [6] = target: T1, 5-HT1A serotoninergic receptor; assay: binding at [^3 H] 8-OH-DPAT binding site; settings: for affinity to 5-HT1A receptor: [^3 H] 8-OH-DPAT, in words
# Source text: as §1
# catalepsy in rats = assay type: in vivo, rat; settings: rat, in vivo, sc; rats
# Experimental: (§2) The s.c. application of the compounds of Example 5 (0.5 to 16 mg/kg) and of Example 8 (0.125 to 4 mg/kg), respectively, caused catalepsy in rats (the method was described by Morelli and Chiara, Europ. J. Pharmacol. 117, 179-185, 1985).
# [7] = tested on: isolated rat uterus (serotonin); assay: inhibition of serotonin-induced contractions of the isolated rat uterus; settings: serotonin-induced contractions (serotonin 2.47×10^-8 M where printed)
# [8] = tested on: isolated rabbit thoracic aorta (noradrenaline); assay: inhibition of the constrictive activity of noradrenaline on the isolated rabbit thoracic aorta
# α1 receptor = assay: binding, [^3 H]Prazosin
# Source text: (§3) Binding affinities of the compounds of Examples 5
# α1 receptors = assay: noradrenaline-induced lethality in rats; assay type: in vivo, rat; settings: s.c.
# rats = assay: catalepsy in rats; assay type: in vivo, rat; settings: in words
# Experimental: as §2
# [9] = overall antipsychotic action and side-effect profile (summary statements); assay type: in vivo; settings: in words
# D2 receptors [10] = target: T3, D2 receptors (Rattus norvegicus, UniProt P61169); assay: apomorphine-induced locomotion; assay type: in vivo; settings: sc, -45 min., apomorphine 0.4 mg/kg s.c., rats, read-out: ID50, apomorphine-induced locomotion
# T3 construct: from tissue; host or cells: living rats (central nervous system)
# T3 sequence (P61169 whole entry): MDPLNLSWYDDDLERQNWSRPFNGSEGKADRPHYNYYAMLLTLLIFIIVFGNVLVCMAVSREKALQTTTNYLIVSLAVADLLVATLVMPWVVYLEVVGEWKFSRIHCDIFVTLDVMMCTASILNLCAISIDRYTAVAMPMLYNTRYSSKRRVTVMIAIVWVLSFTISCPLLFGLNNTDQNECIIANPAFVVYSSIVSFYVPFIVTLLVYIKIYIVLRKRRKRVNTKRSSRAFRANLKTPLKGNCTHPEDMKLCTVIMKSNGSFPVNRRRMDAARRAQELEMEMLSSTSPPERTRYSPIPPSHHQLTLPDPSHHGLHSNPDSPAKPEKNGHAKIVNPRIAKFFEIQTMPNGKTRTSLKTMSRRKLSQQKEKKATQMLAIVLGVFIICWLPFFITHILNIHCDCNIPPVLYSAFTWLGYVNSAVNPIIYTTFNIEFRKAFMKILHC
# [11] = prolongation of pentobarbital-induced anesthesia in mice; settings: mouse, in vivo, ip
# D1 receptor = D1 receptor (Homo sapiens, UniProt P21728); assay: binding, [^3 H]SCH23390
# Chain of D1 receptor (P21728 whole entry): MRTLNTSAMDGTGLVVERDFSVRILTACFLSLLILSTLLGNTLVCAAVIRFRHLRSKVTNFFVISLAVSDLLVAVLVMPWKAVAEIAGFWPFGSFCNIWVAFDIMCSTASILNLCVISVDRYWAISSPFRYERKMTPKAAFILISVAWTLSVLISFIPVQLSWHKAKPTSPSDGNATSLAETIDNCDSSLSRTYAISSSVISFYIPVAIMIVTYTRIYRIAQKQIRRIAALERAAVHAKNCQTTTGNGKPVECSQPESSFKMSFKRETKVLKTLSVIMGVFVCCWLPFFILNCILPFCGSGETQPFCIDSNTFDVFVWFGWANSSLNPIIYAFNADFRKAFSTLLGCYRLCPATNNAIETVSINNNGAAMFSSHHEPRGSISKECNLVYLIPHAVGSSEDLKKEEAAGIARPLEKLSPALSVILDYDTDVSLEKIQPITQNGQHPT
# Source text: as §3
# [12] = blood pressure and heart rate in pentobarbital-anesthetized normotensive rats; assay type: in vivo, rat; settings: rat, in vivo, iv; normotensive rats, pentobarbital-induced anesthesia; read-out: ED50, decrease of the mean arterial blood pressure
# [13] = target: T4, isolated rabbit thoracic aorta (serotonin) (Oryctolagus cuniculus, UniProt G1SYA7)
# T4 construct: isolated rabbit thoracic aorta; from tissue; host or cells: isolated rabbit thoracic aorta
# T4 sequence (G1SYA7 entry or part of it): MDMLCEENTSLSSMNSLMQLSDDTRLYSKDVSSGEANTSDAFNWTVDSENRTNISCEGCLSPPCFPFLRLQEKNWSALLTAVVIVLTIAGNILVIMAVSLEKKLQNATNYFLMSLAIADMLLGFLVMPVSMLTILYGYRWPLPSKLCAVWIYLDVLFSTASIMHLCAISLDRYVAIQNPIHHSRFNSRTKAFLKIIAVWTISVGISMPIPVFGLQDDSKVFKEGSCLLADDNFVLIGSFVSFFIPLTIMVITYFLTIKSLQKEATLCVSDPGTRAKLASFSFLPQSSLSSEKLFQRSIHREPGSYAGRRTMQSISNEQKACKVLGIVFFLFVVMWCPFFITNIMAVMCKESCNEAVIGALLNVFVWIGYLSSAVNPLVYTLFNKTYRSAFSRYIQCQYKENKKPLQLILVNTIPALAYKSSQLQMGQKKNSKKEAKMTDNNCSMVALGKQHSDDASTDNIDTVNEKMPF
# mice = assay: spontaneous motor activity in mice; assay type: in vivo; settings: two models (motor activity and pentobarbital anesthesia); vs haloperidol; in words
# [14] = spontaneous motor activity in mice; assay type: in vivo; settings: mouse, in vivo, ip; mice; read-out: ID50, inhibition of spontaneous motor activity
# D2 receptors [15] = target: T5, D2 receptors (Mus musculus, UniProt P61168); assay: apomorphine-induced climbing in mice; assay type: in vivo; settings: ip, -30 min., apomorphine 1.5 mg/kg s.c., read-out: ID50, climbing behavior
# T5 construct: from tissue; host or cells: living mice (central nervous system)
# T5 sequence (P61168 whole entry): as the sequence (P61169 whole entry) above, with A29P counted along it
# Experimental: The application of apomorphine in a dose of 1.5 mg/kg s.c. caused a characteristic climbing behavior in mice.
smiles,measurement,setting,value
"C#CCNC(=O)[C@@H]1C=C2c3cccc4[nH]cc(c34)C[C@H]2N(C)C1 [Example 1, 9,10-Didehydro-N-(2'-propinyl)-6-methylergoline-8β-carboxamide]",peripheral vasoconstriction,pithed rats,"transient, yet very strong peripheral vasoconstriction"
same,functional activity at 5-HT1A,[1],indicated an agonistic activity
same,dilatation of the pupil,pupil; 5 mg/kg i.p.,very strong dilatation of the pupil
same,time course of effect,pupil; 5 mg/kg i.p.,After 60 minutes the effect was quickly reduced
same,behavioural effects in mice,pupil,"The mice became agitated, piloerection, tremor and excitation took place"
same,spontaneous tail-flick,"5-HT1A receptors; 0.08 to 0.63 mg/kg s.c. (Example 1), 5.0 mg/kg s.c. (Example 2)",provoked a dose- and time-dependent spontaneous tail-flick in rats
same,tail-flick effect compared with 8-OH-DPAT,5-HT1A receptors; s.c.,very similar to that caused by the selective 5-HT1A agonist 8-OH-DPAT
same,uterotonic activity,isolated rat uterus,no uterotonic activity
same,receptors responsible for vasoconstriction,[2]; 1 μM,the result of the activation of α1 -adrenergic receptors
same,constriction of the isolated rabbit thoracic aorta,[2]; in words,caused a constriction of the isolated rabbit thoracic aorta
same,"intrinsic activity, aorta constriction","[2]; in words, vs serotonin",comparable to that of serotonin
same,functional activity at sigma receptor,sigma receptor [3],indicated an antagonistic activity
same,exitus,[4],followed by exitus
same,time to onset of reduction in pressure and heart rate,[4],Approximately 2 minutes
same,effect on carotid artery pressure,[4],a strong reduction in the carotid artery pressure and heart rate
same,effect on heart rate,[4],a strong reduction in the carotid artery pressure and heart rate
same,Ki,5-HT2 receptor,64 nM
same,affinity for 5-HT2 receptors,5-HT2 receptor,high affinity
same,affinity to sigma receptor,sigma receptor [5],possessed affinity
same,Ki,D2 receptor,151 nM
same,affinity for D2 receptors,D2 receptor,lower affinity
same,inhibition at 4 mg/kg,"5-HT2 receptors; 4 mg/kg i.p., D,L-5-hydroxytryptophan/carbidopa, 15 minutes prior",62%
same,ED50,5-HT2 receptors; 5-hydroxytryptophan/carbidopa,0.74 mg/kg
same,Ki,"[6]; 5-HT1A, [^3 H]8-OH-DPAT",1 nM
same,affinity to 5-HT1A receptor,[6],high affinity; also recorded: possessed affinity
"O=C(CCCN1CCC(O)(c2ccc(Cl)cc2)CC1)c1ccc(F)cc1 [haloperidole, reference compound]",ED50,catalepsy in rats,0.019 mg/kg
"C#CCN(C)C(=O)[C@@H]1C=C2c3cccc4[nH]c(Br)c(c34)C[C@H]2N(C)C1 [Example 5, 2-Bromo-9,10-didehydro-N-methyl-N-(2'-propinyl)-6-methylergoline-8β-carboxamide]",peripheral vasoconstriction,pithed rats,slowly developing peripheric vasoconstriction
same,"peripheric vasoconstriction, increase",pithed rats; vs control,20%
same,IC50,[7],12.5 nM
same,mode of inhibition of noradrenaline constriction,[8]; in words,competitively inhibited
same,pA2,[8]; vs noradrenaline,6.45
same,functional activity at 5-HT1A,[1],did not indicate any activity
same,uterotonic activity,isolated rat uterus,no uterotonic activity
same,affinity for α1 receptors,α1 receptor; in words,lower
same,Ki,"α1 receptor; α1, [^3 H]Prazosin",29 nM
same,"ID50, noradrenaline-induced lethality",α1 receptors,5.11 mg/kg
same,cataleptic action compared with haloperidole,rats,lesser than the action caused by the typical antipsychotic haloperidole
same,ED50,catalepsy in rats,1.4 mg/kg
same,antipsychotic action,[9],strongest antipsychotic action
same,functional activity at sigma receptor,sigma receptor [3],indicated an antagonistic activity
same,ED50,D2 receptors [10],0.66 mg/kg
same,ED50,[11],9.2 mg/kg
same,Ki,"D1 receptor; D1, [^3 H]SCH23390",97 nM
same,affinity for D1 receptors,D1 receptor; in words,lower
same,ED50,[12],0.42 mg/kg
same,effect on carotid artery pressure,[4],"small, yet statistically significant decrease in carotid artery pressure and heart rate"
same,effect on heart rate,[4],"small, yet statistically significant decrease in carotid artery pressure and heart rate"
same,maximum reduction in carotid artery pressure,[4]; vs initial level,10%
same,reduction in heart rate,[4]; vs initial level,10%
same,Ki,5-HT2 receptor,18 nM
same,affinity for 5-HT2 receptors,5-HT2 receptor,high affinity
same,mode of inhibition of serotonin constriction,[13]; in words,competitively inhibited
same,Kb,"[13]; vs serotonin, read-out: pA2 (converted)",11.7 nM
same,affinity to sigma receptor,sigma receptor [5],possessed affinity
same,Ki,D2 receptor,2.3 nM
same,affinity for D2 receptors,D2 receptor,high affinity
same,ED50,"5-HT2 receptors; L-5-HTP/carbidopa, 15 minutes prior",3.8 mg/kg
same,affinity to 5-HT1A receptor,[6],possessed affinity
same,depressant action on the level of CNS,mice,several times lower depressant action on the level of CNS if compared with haloperidol
same,ED50,[14],12.5 mg/kg
same,ED50,D2 receptors [15],6.89 mg/kg
